Each block holds one compound with its values, some of them ahead of it.
Columns and labels:
[1] = target: T1, Serine/threonine-protein kinase B-raf (Homo sapiens, UniProt P15056, V600E); experiment: biochemical
[2] = Cytotoxicity against human HCC364 cells harboring p61 V600E mutant; type: functional, cell-based
[3] = target: T1, Serine/threonine-protein kinase B-raf
A-375 [4] = experiment: Cytotoxicity against human A375 cells harboring BRAF V600E mutant after 72 hrs by CellTiter-Glo assay; type: functional, cell-based; conditions: A-375, 72 h
[5] = target: T1, Serine/threonine-protein kinase B-raf; experiment: Inhibition of BRAF V600E mutant (unknown origin)
SK-MEL19 = experiment: Cytotoxicity against human SK-MEL-19 cells harboring BRAF mutant after 3 days; type: functional, cell-based; conditions: SK-MEL19, 72 h
[6] = target: T2, Serine/threonine-protein kinase B-raf (Homo sapiens, UniProt P15056); experiment: Inhibition of BRAF in human Jurkat T cells assessed as reduction in ERK phosphorylation; type: cell-based
T2 sequence (P15056 whole entry): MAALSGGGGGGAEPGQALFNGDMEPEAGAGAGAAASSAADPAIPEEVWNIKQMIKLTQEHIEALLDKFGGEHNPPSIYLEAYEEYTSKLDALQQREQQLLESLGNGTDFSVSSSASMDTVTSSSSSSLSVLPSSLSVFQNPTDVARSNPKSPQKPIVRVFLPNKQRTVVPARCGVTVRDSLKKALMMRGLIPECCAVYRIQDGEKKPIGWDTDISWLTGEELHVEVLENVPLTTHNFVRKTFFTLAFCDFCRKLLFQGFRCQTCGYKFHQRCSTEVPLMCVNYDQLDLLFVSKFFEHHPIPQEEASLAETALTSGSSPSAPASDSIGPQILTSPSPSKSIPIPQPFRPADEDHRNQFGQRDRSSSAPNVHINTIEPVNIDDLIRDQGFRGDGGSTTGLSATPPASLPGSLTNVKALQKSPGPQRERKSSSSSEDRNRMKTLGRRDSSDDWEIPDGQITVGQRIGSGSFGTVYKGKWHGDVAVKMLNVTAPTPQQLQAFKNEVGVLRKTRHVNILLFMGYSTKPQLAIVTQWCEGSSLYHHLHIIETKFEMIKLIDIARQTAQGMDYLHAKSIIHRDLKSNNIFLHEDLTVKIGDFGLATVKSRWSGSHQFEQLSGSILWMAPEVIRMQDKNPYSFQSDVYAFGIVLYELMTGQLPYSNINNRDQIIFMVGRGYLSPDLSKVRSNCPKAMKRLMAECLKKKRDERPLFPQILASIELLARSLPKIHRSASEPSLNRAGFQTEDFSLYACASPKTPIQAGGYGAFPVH

[7] = target: T3, RAF proto-oncogene serine/threonine-protein kinase (Homo sapiens, UniProt P04049); experiment: Inhibition of CRAF (unknown origin) by Z'-LYTE assay
T3 sequence (P04049 whole entry): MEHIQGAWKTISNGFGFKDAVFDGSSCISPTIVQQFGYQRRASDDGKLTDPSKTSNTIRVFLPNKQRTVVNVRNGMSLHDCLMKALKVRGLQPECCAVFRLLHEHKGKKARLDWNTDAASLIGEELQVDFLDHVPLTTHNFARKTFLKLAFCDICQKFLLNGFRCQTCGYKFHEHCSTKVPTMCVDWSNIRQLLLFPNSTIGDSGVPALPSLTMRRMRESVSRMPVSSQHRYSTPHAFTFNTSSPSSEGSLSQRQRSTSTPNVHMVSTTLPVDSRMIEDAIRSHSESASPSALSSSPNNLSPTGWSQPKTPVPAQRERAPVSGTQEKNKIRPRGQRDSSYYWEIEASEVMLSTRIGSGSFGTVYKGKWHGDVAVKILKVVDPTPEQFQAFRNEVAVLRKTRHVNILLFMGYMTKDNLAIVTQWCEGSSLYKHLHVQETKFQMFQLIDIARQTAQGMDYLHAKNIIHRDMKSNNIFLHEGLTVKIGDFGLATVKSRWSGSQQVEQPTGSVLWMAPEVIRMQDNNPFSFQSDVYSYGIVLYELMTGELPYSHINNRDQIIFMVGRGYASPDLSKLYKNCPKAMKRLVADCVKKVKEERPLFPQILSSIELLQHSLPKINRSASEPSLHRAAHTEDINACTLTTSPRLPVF

[8] = target: T1, Serine/threonine-protein kinase B-raf; experiment: Inhibition of BRAF V600E mutant (unknown origin) by Z'-LYTE assay
[9] = target: T1, Serine/threonine-protein kinase B-raf; experiment: Inhibition of BRAF V600E mutant in human A375 cells assessed as reduction in ERK phosphorylation after 2 hrs by ELISA; type: cell-based
A-375 [10] = experiment: Cytotoxicity against human A375 cells harboring BRAF V600E mutant after 72 hrs by alamar blue assay; type: functional, cell-based; conditions: A-375, 72 h
[11] = target: T2, Serine/threonine-protein kinase B-raf; experiment: Inhibition of wild type BRAF (unknown origin) by Z'-LYTE assay
A-375 [12] = experiment: Cytotoxicity against human A375 cells harboring BRAF V600E mutant after 96 hrs by CellTiter-Glo assay; type: functional, cell-based; conditions: A-375, 96 h
[13] = target: T1, Serine/threonine-protein kinase B-raf; experiment: Inhibition of BRAF V600E mutant in human A375 cells assessed as reduction in ERK phosphorylation; type: cell-based
WM 266-4 = experiment: Cytotoxicity in human WM266.4 cells after 72 hrs by CellTiter-Glo assay; type: functional, cell-based; conditions: WM 266-4, 72 h
SK-MEL-28 = experiment: Cytotoxicity against human SK-MEL-28 cells after 72 hrs by CellTiter-Glo assay; type: functional, cell-based; conditions: SK-MEL-28, 72 h
A-375 [14] = experiment: Cytotoxicity against human A375 cells harboring BRAF V600E mutant; type: functional, cell-based
SK-MEL-30 = experiment: cells; conditions: Homo sapiens, SK-MEL-30, 48 h
[15] = Half life in human; type: ADME, organism-based; conditions: in vivo
A-375 [16] = experiment: Cytotoxicity against human A375 cells harboring BRAF V600E mutant after 48 hrs by CellTiter-Glo assay; type: functional, cell-based; conditions: A-375, 48 h
[17] = Tmax in human; type: ADME, organism-based; conditions: in vivo
[18] = Cytotoxicity against human PLGA cells harboring BRAF V600E mutant after 96 hrs by CellTiter-Glo assay; type: functional, cell-based
[19] = target: T2, Serine/threonine-protein kinase B-raf
[20] = target: T4, Serine/threonine-protein kinase A-Raf (Homo sapiens, UniProt P10398); experiment: Inhibition of ARAF (unknown origin)
T4 sequence (P10398 whole entry): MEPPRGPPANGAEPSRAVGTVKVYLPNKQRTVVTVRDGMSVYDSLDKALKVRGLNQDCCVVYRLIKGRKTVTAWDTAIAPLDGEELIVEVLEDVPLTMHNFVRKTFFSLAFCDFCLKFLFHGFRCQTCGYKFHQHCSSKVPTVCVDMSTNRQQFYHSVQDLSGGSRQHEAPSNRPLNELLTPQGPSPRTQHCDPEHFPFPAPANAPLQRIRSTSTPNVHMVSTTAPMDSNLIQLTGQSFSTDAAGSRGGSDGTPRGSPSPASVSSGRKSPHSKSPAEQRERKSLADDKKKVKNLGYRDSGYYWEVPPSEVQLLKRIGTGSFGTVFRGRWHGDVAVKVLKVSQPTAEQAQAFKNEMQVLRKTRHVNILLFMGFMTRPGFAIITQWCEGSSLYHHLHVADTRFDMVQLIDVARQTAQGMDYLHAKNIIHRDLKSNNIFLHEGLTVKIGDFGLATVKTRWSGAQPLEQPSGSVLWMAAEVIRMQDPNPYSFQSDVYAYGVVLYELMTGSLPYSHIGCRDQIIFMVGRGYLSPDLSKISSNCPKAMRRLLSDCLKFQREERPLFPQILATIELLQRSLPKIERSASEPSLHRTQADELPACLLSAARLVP

[21] = target: T1, Serine/threonine-protein kinase B-raf; remark: listed apart in the source
[22] = target: T1, Serine/threonine-protein kinase B-raf; remark: listed apart in the source
[23] = target: T3, RAF proto-oncogene serine/threonine-protein kinase; experiment: Inhibition of CRAF (unknown origin)

T1 sequence (P15056 2-766 V600E limits assumed): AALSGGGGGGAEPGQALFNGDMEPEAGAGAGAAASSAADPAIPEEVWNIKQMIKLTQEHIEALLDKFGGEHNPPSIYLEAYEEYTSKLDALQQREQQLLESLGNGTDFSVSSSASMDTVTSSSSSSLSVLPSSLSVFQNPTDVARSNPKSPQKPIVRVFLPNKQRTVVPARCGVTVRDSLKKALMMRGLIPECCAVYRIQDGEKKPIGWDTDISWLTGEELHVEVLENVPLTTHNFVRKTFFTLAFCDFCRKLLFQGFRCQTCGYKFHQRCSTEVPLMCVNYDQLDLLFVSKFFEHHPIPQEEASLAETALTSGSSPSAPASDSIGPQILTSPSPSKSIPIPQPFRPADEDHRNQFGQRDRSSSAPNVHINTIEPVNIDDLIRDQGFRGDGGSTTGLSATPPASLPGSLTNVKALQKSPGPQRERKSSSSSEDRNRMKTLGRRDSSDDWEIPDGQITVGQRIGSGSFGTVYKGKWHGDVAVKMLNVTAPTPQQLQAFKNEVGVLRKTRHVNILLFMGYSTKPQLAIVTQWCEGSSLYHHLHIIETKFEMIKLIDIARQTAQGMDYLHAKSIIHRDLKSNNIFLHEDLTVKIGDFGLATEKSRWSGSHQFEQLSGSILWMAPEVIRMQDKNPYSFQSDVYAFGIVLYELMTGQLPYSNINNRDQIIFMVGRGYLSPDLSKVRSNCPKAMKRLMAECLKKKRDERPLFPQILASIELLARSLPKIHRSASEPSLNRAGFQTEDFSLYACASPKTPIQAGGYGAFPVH

Compound: O=C(c1c(F)ccc(NS(=O)(=O)N2CC[C@H](F)C2)c1F)c1c[nH]c2ncc(-c3cnc(C4CC4)nc3)cc12
- IC50 [1]: 0.0038 µM
- IC50 [2]: 0.8 µM
- IC50 [3]: 0.0035 µM

Compound: CCCS(=O)(=O)Nc1ccc(F)c(C(=O)c2c[nH]c3ncc(Cl)cc23)c1F [PLX-4720]
- IC50 (A-375 [4]): 0.5 µM

- IC50 [5]: 0.006 µM
- IC50 [6]: 2 µM
Compound: COC(=O)Nc1nc2cc(C3(O)c4ccccc4C(=O)N3c3cc(Cl)ccc3C)ccc2[nH]1 (stereo not given) [XL-281]
- IC50 (SK-MEL19): 0.2 µM

Compound: CCCS(=O)(=O)Nc1ccc(F)c(-n2cc(-c3cncnc3)c3nc(N(C)C4CCN(CC)CC4)ccc32)c1F [XP-102]
- IC50 [7]: 0.0006 µM
- IC50 [8]: 0.0004 µM
- IC50 [9]: 0.0005 µM
- IC50 (A-375 [10]): 0.0009 µM
- IC50 [11]: 0.0008 µM

Compound: OCCn1cc(-c2ccc3c(c2)CC/C3=N\O)c(-c2ccncc2)n1
- EC50 (A-375 [12]): > 0.5 µM

Compound: CC(C)(C)c1cc(NC(=O)Nc2ccc(Oc3ccnc4[nH]c(=O)cnc34)cc2F)n(-c2ccccc2)n1
- IC50 [5]: 0.04 µM
- IC50 [13]: 0.005 µM
- IC50 (WM 266-4): 0.015 µM

Compound: CC(C)(N)c1cc(C(=O)NC2CCc3ccc(Oc4ccnc5c4CCC(=O)N5)cc3C2)cc(C(F)(F)F)c1 (stereo not given)
- IC50 (A-375 [4]): 0.2 µM

Compound: CC(C)(C)c1nc(-c2cccc(NS(=O)(=O)c3c(F)cccc3F)c2F)c(-c2ccnc(N)n2)s1 [DABRAFENIB]
- IC50 (SK-MEL-28): 0.043 µM

Compound: CCN(C)S(=O)(=O)Nc1ccc(F)c(C(=O)c2c[nH]c3ncc(-c4cnc(C5CC5)nc4)cc23)c1F
- IC50 (A-375 [14]): 0.17 µM
- IC50 [1]: 0.0042 µM
- IC50 [3]: 0.016 µM

- IC50 (SK-MEL-30): 3.9 µM
Compound: CNC(=O)c1cc(Oc2ccc(NC(=O)Nc3ccc(Cl)c(C(F)(F)F)c3)cc2)ccn1 [SORAFENIB]

- half-life [15]: 67 h
Compound: CNc1ncc2cc(-c3cc(NC(=O)NCCC(C)(C)C)c(F)cc3C)c(C)nc2n1 [LY-3009120]

Compound: CN(C)CCOc1ccc(-c2nc(-c3ccncc3)c(-c3ccc4c(c3)CC/C4=N\O)[nH]2)cc1 [SB590885]
- IC50 (A-375 [16]): 0.37 µM

- IC50 [5]: 0.015 µM
- IC50 [13]: 0.005 µM
Compound: CSc1cc(Oc2ccnc3[nH]c(=O)cnc23)ccc1NC(=O)Nc1cc(C(C)(C)C)nn1-c1ccccc1
- IC50 (A-375 [4]): 0.01 µM

- Tmax [17]: 2 h
Compound: C[C@H](NC(=O)c1ncnc(N)c1Cl)c1ncc(C(=O)Nc2cc(C(F)(F)F)c(Cl)cn2)s1
- IC50 [18]: 0.248 µM

- IC50 [19]: 0.032 µM
- IC50 [20]: 0.0056 µM
- IC50 [21]: 0.064 µM
- IC50 [22]: 0.023 µM
- IC50 [23]: 0.007 µM
Compound: O=C1CCc2c(Oc3ccc4c(c3)[C@H]3[C@@H](O4)[C@@H]3c3nc4ccc(C(F)(F)F)cc4[nH]3)ccnc2N1
- IC50 (A-375 [4]): 0.2 µM

Reference: ChEMBL document CHEMBL4190375, “Current Insights of BRAF Inhibitors in Cancer” (J Med Chem, 2018)
